US9632088B2, “Methods and compositions for gamma-secretase assay” (MEMORIAL SLOAN-KETTERING CANCER CENTER, priority 2010, dated 2017)

Tests used:
γ-secretase [1] = biological target: T1, γ-secretase (Homo sapiens, UniProt P49768); test: Cell-based Notch cleavage assay, immunostaining with SM320, HEK293 cells transfected with N1-ΔE; conditions: 1 μM inhibitor, 48 hours
T1 construct: endogenous in cells; host or cells: HEK293 cells transiently transfected with myc-tagged N1-ΔE (substrate only)
Protocol: HEK293 cells were seeded in a 4-well chamber slide (Lab-tek) and transfected with N1-ΔE as in the preceding paragraph, using Fugene 6 transfection reagents (Roche Applied Science, Mannheim, Germany). Transfected cells were then treated with either DMSO at a 1% final concentration or 1 μM Compound E.
After 48 hours of treatment, the cells were washed with PBS, fixed with cold methanol and permeabilized with 0.25% Tween-20. SM320 and anti-myc antibodies were added to detect NICD and full length N1-ΔE, respectively. Alexa Fluor-488 (Invitrogen, San Diego, Calif.) conjugated anti-rabbit and Alexa Fluor-594 (Invitrogen) conjugated anti-mouse antibodies were used as corresponding secondary antibodies. 4′,6-diamidino-2-phenylindole (DAPI) was used to stain cell nuclei. Finally, fluorescent images were captured with a Leica TCS Sp2 AOBS laser scanning confocal microscope (Memorial Sloan-Kettering Cancer Center Molecular Cytology Core Facility). Alternatively, REK 293 cells overexpressing N1-ΔE were treated with DMSO or Compound E, and were then collected through centrifugation and embedded in paraffin. The cell pellets were sliced and mounted on glass slides. […]
SM320 was further characterized using immunostaining analysis. […] Using confocal microscopy, it was shown that N1-ΔE protein, as detected by anti-myc antibody, is expressed in cells transfected with the construct (FIG. 6B, panel 2). […]

γ-secretase [2] = biological target: T1, γ-secretase; test: 1536-well format ALPHA-based γ-secretase assay, control validation; type: biochemical; conditions: low control: 250 nM Compound E, 1% DMSO, full 1536-well plate
Protocol: Based on the 384-well assay format described above, to the assay was miniaturized to a 1536-well format for automated high-throughput drug screening. Concentrations of SM320, protein A conjugated acceptor beads and streptavidin conjugated donor beads were titrated to minimize reagent usage. […] The assay was validated by comparing the high and low control signals from full 1536-well plates. The high controls contained 1% final DMSO concentration (v/v), while the low controls contains 250 nM of Compound E also at 1% final DMSO concentration (v/v).

[3] = biological target: T2, WT PS1 NTF (γ-secretase active site) (Homo sapiens, UniProt P49768); test: Photolabeling of PS1 NTF, N2a wild-type PS1 membrane; type: binding, murine; conditions: probes 10 nM, 0.25% CHAPSO, normalized to JC8, excess L458 as competitor
T2 construct: total membrane
Protocol: (§1) Total cell membrane was pre-incubated in the presence of DMSO or 1 μM L458 in PIPES buffer containing 0.25% CHAPSO at 37° C. for 30 minutes. Then, photolabeling probes (JC8, L646 or GY4) (Li et al., 2000, Nature, 405:689-694, Chun et al., 2004, J Org. Chem., 69:7344-7347, Yang et al., 2009, Bioorg Med Chem. Lett., 19:922-925) at 10 nM were added and incubated for an additional 1 hour at 37° C. The reaction mixtures were irradiated at 350 nm for 45 minutes and solubilize with RIPA buffer. Biotinylated proteins in the soluble fraction were captured by Streptavidin resin (Pierce) overnight at 4° C. Bound proteins were eluted by boiling with SDS sample buffer and analyzed by western blotting with anti-PS1 NTF antibodies.
(§2) L646, GY4 and JC8, which photolabel the S2, S1, and S1′ subsites within the active site of PS1, respectively, were used for this study (FIG. 10b). Membranes isolated from N2a cells stably expressing wild-type (WT), M146L, or E280A PS1 were photolabeled with JC8, GY4 or L646 in the presence of 0.25% CHAPSO. […] After […] irradiation, biotinylated proteins were isolated with streptavidin beads and analyzed by western blotting with anti-PS1 NTF antibodies. […] To eliminate the effect of various amounts of γ-secretase existing in different cell lines, we normalized each probe with JC8 labeling in the same cell lines.

[4] = biological target: T3, M146L PS1 NTF (γ-secretase active site) (Homo sapiens, UniProt P49768, M146L); test: Photolabeling of PS1 NTF, N2a M146L PS1 membrane; type: binding, murine; conditions: probes 10 nM, 0.25% CHAPSO, normalized to JC8, excess L458 as competitor
T3 construct: total membrane
Protocol: as §1, §2

[5] = biological target: T4, E280A PS1 NTF (γ-secretase active site) (Homo sapiens, UniProt P49768, E280A); test: Photolabeling of PS1 NTF, N2a E280A PS1 membrane; type: binding, murine; conditions: probes 10 nM, 0.25% CHAPSO, normalized to JC8, excess L458 as competitor
T4 construct: total membrane
Protocol: as §1, §2

CC(NC(=O)Cc1cc(F)cc(F)c1)C(=O)NC1N=C(c2ccccc2)c2ccccc2N(C)C1=O (stereo not drawn) [Compound E]
detection of NICD by SM320 immunostaining (γ-secretase [1]): not in cells treated with Compound E | Average (ALPHA signal) (γ-secretase [2]): 319

CC(C)C[C@H](NC(=O)[C@H](Cc1ccccc1)C[C@@H](O)[C@H](Cc1ccccc1)NC(=O)OC(C)(C)C)C(=O)N[C@@H](Cc1ccccc1)C(N)=O [L458]
Photolabeling of PS1 NTF (western blot) [3]: completely prevented labeling | Photolabeling of PS1 NTF (western blot) [4]: completely prevented labeling | Photolabeling of PS1 NTF (western blot) [5]: completely prevented labeling | detection of NICD by SM320 immunostaining (γ-secretase [1]): No spots of any color are observed
